# Experimental data: US20060281818A1, “Method for treating mucosal disorders” (SUCAMPO AG, NORTH CAROLINA STATE UNIVERSITY, priority 2005, published 2006)
# Entries after “also recorded” stand apart in the source; their conditions may differ. Marks after values point to notes of the source that are not given here.
# What was measured:
# [1] = tested on: ischemia-injured porcine ileum; assay: Ussing chamber: short circuit current (Isc) and transepithelial electrical resistance (TER); assay type: cell-based; details: for absolute change in Isc (Δ Isc): mean±SE
# Description: (§1) Six to eight-week-old Yorkshire crossbred pigs of either sex were housed individually, and maintained on a commercial pelleted feed. Pigs were held off feed for 24 hours prior to experimental surgery. General anesthesia was induced with xylazine (1.5 mg/kg, IM), ketamine (11 mg/kg, IM), and thiopental (15 mg/kg, IV) and was maintained with intermittent infusion of thiopental (6-8 mg/kg/hr). Pigs were placed on a heating pad and ventilated with 100% O2 via a tracheotomy using a time-cycled ventilator. The jugular vein and carotid artery were cannulated and blood gas analysis was performed to confirm normal pH and partial pressures of CO2 and O2. Lactated Ringers solution was administered intravenously at a maintenance rate of 15 ml/kg/hr. The ileum was approached via ventral midline incision. Ileal segments were delineated by ligating the intestine at 10 cm intervals, and subjected to ischemia by occluding the local mesenteric blood supply for 45 minutes.
# Following the 45-minute ischemic period, tissues were harvested from the pig and the mucosa was stripped from the seromuscular layer in oxygenated (95% O2/ 5% CO2) Ringer's solution (mmol/l: Na^+, 154; K+, 6.3; Cl^−, 137; HCO3^−, 24; pH 7.4) containing 5×10^−6 M indomethacin to prevent endogenous PG production during the stripping procedure. Tissues were then mounted in 3.14 cm^2 aperture Ussing chambers. For Ussing chamber experiments, ileal tissues from one pig were mounted on multiple Ussing chambers and subjected to different in vitro treatments. Tissues were bathed on the serosal and mucosal sides with 10 ml Ringer's solution. The serosal bathing solution contained 10 mM glucose, and was osmotically balanced on the mucosal side with 10 mM mannitol. Bathing solutions were oxygenated (95% O2/5% CO2) and circulated in water-jacketed reservoirs. The spontaneous potential difference (PD) was measured using Ringer-agar bridges connected to calomel electrodes, and the PD was short-circuited through Ag—AgCl electrodes using a voltage clamp that corrected for fluid resistance. Transepithelial electrical resistance (Ω.cm^2) was calculated from the spontaneous PD and short-circuit current (Isc). If the spontaneous PD was between −1.0 and 1.0 mV, tissues were current clamped at ±100 μA for 5 seconds and the PD recorded. Short-circuit current and PD were recorded at 15-minute intervals over a 4-hour experiment.
# After tissues were mounted on Ussing chambers, tissues were allowed to acclimate for a period of 30 minutes to achieve stable baseline measurements. Tissues were then treated with varying doses of COMPOUND A (13,14-dihydro-15-keto-16,16-difluoro-PGE1) (0.01 μM, 0.1 μM, and 1 μM) by adding the compound to the mucosal bathing solution (t=30 min).
# Data were reported as means±SE. All data were analyzed by using an ANOVA for repeated measures, except where the peak response was analyzed by using a standard one-way ANOVA (Sigmastat, Jandel Scientific, San Rafael, Calif.). A Tukey's test was used to determine differences between treatments following ANOVA.
# [2] = tested on: ischemia-injured porcine ileum; assay: Mucosal-to-serosal 3H-mannitol flux in Ussing chamber; assay type: cell-based; details: 1 μM; n=4; P<0.05
# Description: as §1, with “Lactated Ringers solution was administered intravenously at a maintenance rate of 15 ml/kg/hr. The ileum was approached via ventral midline incision. Ileal segments were delineated by ligating the intestine at 10 cm intervals, and subjected to ischemia by occluding the local mesenteric blood supply for 45 minutes.” left out
# Following the 45-minute ischemic period, tissues were harvested from the pig and the mucosa was stripped from the seromuscular layer in oxygenated (95% O2/ 5% CO2) Ringer's solution (mmol/l: Na^+, 154; K+, 6.3; Cl^−, 137; HCO3^−, 24; pH 7.4) containing 5×10^−6 M indomethacin to prevent endogenous PG production during the stripping procedure. […] The spontaneous potential difference (PD) was measured using Ringer-agar bridges connected to calomel electrodes, and the PD was short-circuited through Ag—AgCl electrodes using a voltage clamp that corrected for fluid resistance. Transepithelial electrical resistance (Ω.cm^2) was calculated from the spontaneous PD and short-circuit current (Isc). […]
# [3] = tested on: ischemic-injured porcine ileal mucosa; assay: Morphometric assessment of epithelial restitution (histological examination); assay type: cell-based; details: Indo 5 μM, COMPOUND A 1 μM, mean±SE, n=3
# Description: as §1
# Tissues were taken at 0, 60, and 180 minutes for routine histologic evaluation. Tissues were sectioned (5 μm) and stained with hematoxylin and eosin. For each tissue, 3 sections were evaluated. Four well oriented villi and crypts were identified in each section. Villus length was obtained using a micrometer in the eye piece of a light microscope. In addition, the height of the epithelial-covered portion of each villus was measured. The surface area of the villus was calculated using the formula for the surface area of a cylinder. The formula was modified by subtracting the area of the base of the villus, and multiplying by a factor accounting for the variable position at which each villus was cross-sectioned (Gastroenterology 1993; 104:440-471). The percentage of the villous surface area that remained denuded was calculated from the total surface area of the villus and the surface area of the villus covered by epithelium. The percent denuded villous surface area was used as an index of epithelial restitution.
# In table 1, values represents means±SE for % villus surface area denuded and Villus height; n=3. Tissues were mammalian ileum subjected to 45 min ischemia in vivo, after which they were mounted in Ussing chambers for monitoring of recovery responses. Tissues were harvested at 0 min, 60 min, and 180 min post-ischemia during the in vitro recovery phase, fixed in 10% buffered formalin, and processed for histological examination according to standard protocols. Indomethacin (Indo) was administered to select tissues a 5 μM, and COMPOUND A was given at 1 μM. Values lacking common superscript.(*,#) differ by P<0.05.
# [4] = tested on: ischemia-injured porcine ascending colon; assay: Ussing chamber: short circuit current and TER in colon; assay type: cell-based; details: ischemic porcine ascending colon
# Source text: (§2) According to the same procedure described in Example 1 except for using colon instead of ileum, recovery of mucosal barrier function in ischemic condition by the COMPOUND A was investigated.
# (§3) A) Change in short circuit current response to COMPOUND A in ischemia-injured porcine ascending colon, B) Trans epithelial electrical resistance (TER) in response to COMPOUND A in ischemia-injured porcine ascending colon and C) Serosal to mucosal ^3H-mannitol fluxes in response to COMPOUND A in ischemia-injured porcine ascending colon were shown in FIGS. 4 to 6 respectively.
# [5] = tested on: ischemia-injured porcine ascending colon; assay: Serosal to mucosal 3H-mannitol fluxes in colon; assay type: cell-based; details: ischemic porcine ascending colon, FIG. 6
# Source text: as §2, §3
# mammary carcinoma = assay: Incidence of mammary carcinoma, 104-week oral gavage study; assay type: in vivo; details: 104 weeks, female rats
# Description: Female Crl:CD(SD)IGS BR VAF/Plus rats were assigned to 4 study groups (65/group). Groups 2 through 4 received 20, 100, or 400 μg/kg/day of COMPOUND A, respectively, by oral gavage for 104 weeks. The control group (Group 1) received 10 the vehicle, a 1% aqueous solution of Polysorbate 80. The dose volume was 5 mL/kg/day for all groups. When unscheduled death of animal occurred during the study period, a necropsy was performed on the animal. After 104 weeks of treatment, all surviving animals were sacrificed and necropsied. Each rat was evaluated microscopically for the occurrence of mammary carcinoma.
# barrier function = details: Am. J. Physiol. Gastrointest. Liver Physiol. 281:G375-81, 2001; cited from earlier work
# [6] = 1 μM applied to mucosal side, indomethacin 5×10^−6 M Ringer's, P<0.01
compound,measurement,setting,value
"CCCCC(F)(F)C(=O)CCC1C(O)CC(=O)C1CCCCCCC(=O)O (centres unmarked) [COMPOUND A, 13,14-dihydro-15-keto-16,16-difluoro-PGE1]",TER (result in words),"[1]; 0.01 μM, 0.1 μM and 1 μM applied to mucosal side",dose-dependent increases in TER
same,absolute change in Isc (Δ Isc),[1]; 0.01 μM,2±0.8
same,"transepithelial electrical resistance (TER) (FIG. 1 legend, words)","[1]; 0.1 μM and 1 μM doses, added after 30-min equilibration, n=6",marked elevations in transepithelial electrical resistance (TER)
same,"Isc, electrogenic Cl− secretion (result in words)","[1]; 0.1 μM and 1 μM, dose-dependent",sharp and significant (P<0.05) peaks in Isc
same,absolute change in Isc (Δ Isc),[1]; 0.1 μM,16±4.5
same,increase in TER,[1]; [6],2 fold
same,ΔTER,[1]; [6],26 Ω
same,absolute change in Isc (Δ Isc),[1]; 1 μM,29±5.1
same,"Cl− secretion indicated by Isc and ΔIsc (FIG. 2 legend, words)","[1]; increasing doses, n=6",Significant (P<0.05) increases in Cl^− secretion
same,3H-mannitol mucosal-to-serosal flux (result in words),[2],return of ^3H-mannitol flux to non-ischemic control levels; also recorded: reduced ^3H-mannitol mucosal-to-serosal fluxes to non-ischemic control levels
same,Epithelial surface area denuded (%),[3]; recovery time 60 min,4.2 ± 2.5* %
same,Villus height (mm),[3]; recovery time 60 min,0.21 ± 0.02* mm
same,Epithelial surface area denuded (%),[3]; recovery time 180 min,0 ± 0** %
same,Villus height (mm),[3]; recovery time 180 min,0.20 ± 0.01* mm
same,Isc (result in words),[4]; FIG. 4,increased Isc
same,TER (result in words),[4]; FIG. 5,increased
same,serosal-to mucosal fluxes of 3H-mannitol (result in words),[5],recuded serosal-to mucosal fluxes of ^3H-mannitol
same,Number of animals with mammary carcinoma,"mammary carcinoma; 20 μg/kg/day oral gavage, 65 examined (control 12 of 65)",6
same,Number of animals with mammary carcinoma,"mammary carcinoma; 100 μg/kg/day oral gavage, 65 examined (control 12 of 65)",5
same,Number of animals with mammary carcinoma,"mammary carcinoma; 400 μg/kg/day oral gavage, 63 examined (control 12 of 65)",4
same,incidence of mammary carcinoma (result in words),"mammary carcinoma; 20, 100 or 400 μg/kg/day oral gavage",reduced the incidence of mammary carcinoma
deoxy-PGE1,effects on barrier function (result in words),barrier function,had not effects
"COc1ccc2c(c1)c(CC(=O)O)c(C)n2C(=O)c1ccc(Cl)cc1 [Indo, Indomethacin, reference compound]",Epithelial surface area denuded (%),[3]; recovery time 60 min,6.6 ± 2.6* %
same,Villus height (mm),[3]; recovery time 60 min,0.16 ± 0.01* mm
same,Epithelial surface area denuded (%),[3]; recovery time 180 min,0 ± 0** %
same,Villus height (mm),[3]; recovery time 180 min,0.14 ± 0.03* mm
